In PubChem BioAssay AID248 (DTP/NCI, 2004):
“And” between values parts separate entries of the source, which are not always exact repeats. Equal values may be shown once. Toxic doses and inconclusive results are not listed. Rule as the data show it: active = T/C of 150% or more; inactive = T/C below 125%.

System: L1210 leukemia ip in BDF1 mice, survival T/C
Experiment: NCI In Vivo Anticancer Drug Screen. Data for tumor model L1210 Leukemia (intraperitoneal) in B6D2F1 (BDF1) mice
Conditions: endpoint: mean survival time, higher = longer survival
Outline: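 Value reflects the ratio of survival in compound-treated mice to survival in vehicle-treated controls, with both groups carrying the same transplanted tumor.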

[1] = dose: 100.0 mg/kg/injection, schedule: Q01DX001 (ip), vehicle: saline
[2] = dose: 200.0 mg/kg/injection, schedule: Q01DX001 (ip), vehicle: saline
[3] = dose: 400.0 mg/kg/injection, schedule: Q01DX001 (ip), vehicle: saline
[4] = dose: 100.0 mg/kg/injection, schedule: Q04DX003 (ip), vehicle: saline with Tween-80
[5] = dose: 100.0 mg/kg/injection, schedule: Q04DX002 (ip), vehicle: Klucel (hydroxypropylcellulose) (HPC)
[6] = dose: 200.0 mg/kg/injection, schedule: Q04DX002 (ip), vehicle: Klucel (hydroxypropylcellulose) (HPC)

Measured: T/C

CCN1C(=O)c2ccccc2C1=O
inactive: dose: 50.0 mg/kg/injection, schedule: Q01DX009 (ip), vehicle: Klucel (hydroxypropylcellulose) (HPC) 107 % of control | [1] 96 % of control | dose: 100.0 mg/kg/injection, schedule: Q01DX009 (ip), vehicle: Klucel (hydroxypropylcellulose) (HPC) 94 % of control | [2] 98 % of control | dose: 200.0 mg/kg/injection, schedule: Q01DX009 (ip), vehicle: Klucel (hydroxypropylcellulose) (HPC) 89 % of control | [3] 88 % of control

CCC(C#N)C1C=CCCC1 (configuration not stated)
inactive: dose: 75.0 mg/kg/injection, schedule: Q01DX001 (ip), vehicle: other 107 % of control | dose: 150.0 mg/kg/injection, schedule: Q01DX001 (ip), vehicle: other 107 % of control

C[PH+](c1ccccc1)c1ccccc1.C[PH+](c1ccccc1)c1ccccc1.O=C([S-])[S-].[Pt+2]
inactive: dose: 75.0 mg/kg/injection, schedule: Q04DX003 (ip), vehicle: saline 97 % of control | dose: 150.0 mg/kg/injection, schedule: Q04DX003 (ip), vehicle: saline 92 % of control | dose: 300.0 mg/kg/injection, schedule: Q04DX003 (ip), vehicle: saline 100 % of control

CN(C)CC1C(O)C2CCN1CC2 (configuration not stated)
inactive: dose: 100.0 mg/kg/injection, schedule: Q04DX003 (ip), vehicle: saline 103 % of control | dose: 200.0 mg/kg/injection, schedule: Q04DX003 (ip), vehicle: saline 103 % of control

COC(=O)C1=C(N)CCc2ccccc21
inactive: [4] 97 % of control | dose: 200.0 mg/kg/injection, schedule: Q04DX003 (ip), vehicle: saline with Tween-80 103 % of control | dose: 400.0 mg/kg/injection, schedule: Q04DX003 (ip), vehicle: saline with Tween-80 101 % of control

C/C(=C\C(=N\NC(=N)N)c1ccccc1)c1ccccc1
inactive: dose: 1.87 mg/kg/injection, schedule: Q01DX Z (ip), vehicle: carboxymethylcellulose (CMC) 94 % of control | dose: 3.75 mg/kg/injection, schedule: Q01DX Z (ip), vehicle: carboxymethylcellulose (CMC) 97 % of control | dose: 7.5 mg/kg/injection, schedule: Q01DX Z (ip), vehicle: carboxymethylcellulose (CMC) 88 % of control | dose: 7.5 mg/kg/injection, schedule: Q01DX Z (oral), vehicle: carboxymethylcellulose (CMC) 108 % of control | dose: 15.0 mg/kg/injection, schedule: Q01DX Z (ip), vehicle: carboxymethylcellulose (CMC) 98 % of control | dose: 15.0 mg/kg/injection, schedule: Q01DX Z (oral), vehicle: carboxymethylcellulose (CMC) 106 % of control | dose: 30.0 mg/kg/injection, schedule: Q01DX Z (oral), vehicle: carboxymethylcellulose (CMC) 100 % of control | dose: 60.0 mg/kg/injection, schedule: Q01DX Z (oral), vehicle: carboxymethylcellulose (CMC) 108 % of control

CCc1nc(N)ncc1-c1ccc([N+](=O)[O-])cc1O
inactive: [5] 97 % of control | [6] 100 % of control | dose: 400.0 mg/kg/injection, schedule: Q04DX002 (ip), vehicle: Klucel (hydroxypropylcellulose) (HPC) 90 % of control

C[n+]1c2ccccc2cc2ccc(N=[N+]=[N-])cc21
inactive: dose: 6.25 mg/kg/injection, schedule: Q01DX009 (ip), vehicle: saline 101 % of control | dose: 6.25 mg/kg/injection, schedule: Q04DX003 (ip), vehicle: saline 101 % of control | dose: 12.5 mg/kg/injection, schedule: Q01DX001 (ip), vehicle: saline 97 % of control | dose: 12.5 mg/kg/injection, schedule: Q01DX009 (ip), vehicle: saline 98 % of control | dose: 12.5 mg/kg/injection, schedule: Q04DX003 (ip), vehicle: saline 100 % of control | dose: 25.0 mg/kg/injection, schedule: Q01DX001 (ip), vehicle: saline 97 % of control | dose: 25.0 mg/kg/injection, schedule: Q01DX009 (ip), vehicle: saline 98 % of control | dose: 25.0 mg/kg/injection, schedule: Q04DX003 (ip), vehicle: saline 111 % of control | dose: 35.0 mg/kg/injection, schedule: Q01DX009 (ip), vehicle: saline 104 % of control

COc1ccc(-c2cc3c(OC)ccc(OC)c3[nH]2)cc1OC
inactive: dose: 25.0 mg/kg/injection, schedule: Q04DX002 (ip), vehicle: Klucel (hydroxypropylcellulose) (HPC) 96 % of control | dose: 50.0 mg/kg/injection, schedule: Q04DX002 (ip), vehicle: Klucel (hydroxypropylcellulose) (HPC) 96 % of control and 99 % of control | [5] 91 % of control | [6] 93 % of control

CS(=O)(=O)n1c(CCl)nc2ccccc21
inactive: dose: 50.0 mg/kg/injection, schedule: Q01DX001 (ip), vehicle: saline 96 % of control | [1] 104 % of control | [2] 102 % of control | [3] 102 % of control

CCOC(=S)SCc1ccc([N+](=O)[O-])cc1
inactive: dose: 100.0 mg/kg/injection, schedule: Q04DX002 (ip), vehicle: gum acacia 97 % of control | dose: 200.0 mg/kg/injection, schedule: Q04DX002 (ip), vehicle: gum acacia 100 % of control | dose: 400.0 mg/kg/injection, schedule: Q04DX002 (ip), vehicle: gum acacia 97 % of control

COc1ccccc1N1CCN(CC(O)COc2ccccc2C(C)=O)CC1 (configuration not stated)
inactive: dose: 25.0 mg/kg/injection, schedule: Q01DX009 (ip), vehicle: saline with Tween-80 107 % of control | dose: 50.0 mg/kg/injection, schedule: Q01DX009 (ip), vehicle: saline with Tween-80 105 % of control | dose: 100.0 mg/kg/injection, schedule: Q01DX009 (ip), vehicle: saline with Tween-80 109 % of control | [4] 96 % of control

C=CC(C)NC(=S)NNC(=S)NC (configuration not stated)
inactive: dose: 15.0 mg/kg/injection, schedule: Q01DX015 (ip), vehicle: carboxymethylcellulose (CMC) 95 % of control | dose: 30.0 mg/kg/injection, schedule: Q01DX015 (ip), vehicle: carboxymethylcellulose (CMC) 104 % of control | dose: 50.0 mg/kg/injection, schedule: Q01DX001 (ip), vehicle: carboxymethylcellulose (CMC) 104 % of control | dose: 60.0 mg/kg/injection, schedule: Q01DX015 (ip), vehicle: carboxymethylcellulose (CMC) 95 % of control | dose: 100.0 mg/kg/injection, schedule: Q01DX001 (ip), vehicle: carboxymethylcellulose (CMC) 105 % of control | dose: 120.0 mg/kg/injection, schedule: Q01DX015 (ip), vehicle: carboxymethylcellulose (CMC) 98 % of control | dose: 200.0 mg/kg/injection, schedule: Q01DX001 (ip), vehicle: carboxymethylcellulose (CMC) 109 % of control | dose: 240.0 mg/kg/injection, schedule: Q01DX015 (ip), vehicle: carboxymethylcellulose (CMC) 87 % of control and 89 % of control

Cc1ccc(N=C=C(c2ccc(Cl)cc2)c2ccc(Cl)cc2)cc1
inactive: dose: 1.56 mg/kg/injection, schedule: Q01DX009 (ip), vehicle: DMSO 104 % of control | dose: 3.12 mg/kg/injection, schedule: Q01DX009 (ip), vehicle: DMSO 93 % of control | dose: 6.25 mg/kg/injection, schedule: Q01DX009 (ip), vehicle: DMSO 97 % of control and 103 % of control | dose: 12.5 mg/kg/injection, schedule: Q04DX002 (ip), vehicle: DMSO 105 % of control | dose: 25.0 mg/kg/injection, schedule: Q04DX002 (ip), vehicle: DMSO 109 % of control

O=S(=O)(O)c1ccc2cc(N=Nc3c(O)ccc4ccccc34)ccc2c1
inactive: dose: 100.0 mg/kg/injection, schedule: Q04DX003 (ip), vehicle: carboxymethylcellulose (CMC) 95 % of control | dose: 200.0 mg/kg/injection, schedule: Q04DX003 (ip), vehicle: carboxymethylcellulose (CMC) 103 % of control | dose: 400.0 mg/kg/injection, schedule: Q04DX003 (ip), vehicle: carboxymethylcellulose (CMC) 95 % of control
